Source: BigSolDB 2.1

Nc1cnc(Br)cn1
solubility (mole fraction)
Details | in DMF | in acetone | in ethanol | in ethylene glycol | in isopropanol | in methanol | in n-butanol | in n-propanol | in propylene glycol | in water
278.15 K | 0.00849 | 0.00684 | 0.00144 | 0.000694 | 0.00282 | 0.000887 | 0.00541 | 0.00353 | 0.00113 | 1.76e-05
283.15 K | 0.00942 | 0.0076 | 0.00158 | 0.000773 | 0.00308 | 0.000981 | 0.00601 | 0.00392 | 0.00125 | 1.93e-05
288.15 K | 0.0106 | 0.00856 | 0.00174 | 0.000869 | 0.0034 | 0.00108 | 0.00678 | 0.00445 | 0.00139 | 2.18e-05
293.15 K | 0.0119 | 0.00961 | 0.00194 | 0.00097 | 0.0038 | 0.00121 | 0.00757 | 0.00497 | 0.00153 | 2.43e-05
298.15 K | 0.0133 | 0.0108 | 0.00217 | 0.00109 | 0.00429 | 0.00135 | 0.00853 | 0.00563 | 0.00173 | 2.73e-05
303.15 K | 0.0149 | 0.012 | 0.00243 | 0.00121 | 0.00477 | 0.00151 | 0.00953 | 0.00625 | 0.00192 | 3.08e-05
308.15 K | 0.0165 | 0.0134 | 0.00272 | 0.00135 | 0.00531 | 0.00167 | 0.0106 | 0.00696 | 0.00216 | 3.42e-05
313.15 K | 0.0185 | 0.0149 | 0.00308 | 0.00149 | 0.00594 | 0.00185 | 0.0118 | 0.00774 | 0.00239 | 3.83e-05
318.15 K | 0.0205 | 0.0165 | 0.00345 | 0.00166 | 0.0066 | 0.00204 | 0.0131 | 0.00858 | 0.00266 | 4.27e-05
323.15 K | 0.0227 | 0.0183 | 0.0039 | 0.00184 | 0.00735 | 0.00225 | 0.0145 | 0.0095 | 0.00294 | 4.77e-05
